Laboratory results reported in patent US20060111305A1, “Metabolites of certain [1,4]diazepino[6,7,1-ij]quinoline derivatives and methods of preparation and use thereof” (Wyeth, priority 2004, published 2006).
Where “and” joins values, the source holds several entries; their conditions need not be identical. Equal entries are not always repeated. Where two headings read alike, the source gives them in different places.

Experiment: Concentrations of DCDQ and DCDQ carbamoyl glucuronide (M6) in human plasma, LC/SRM (Table 34)
Assay type: in vivo, healthy human subjects
Details: plasma, plasma; for concentration at 6 h / concentration at 12 h / concentration at 24 h: human, oral, read-out: M6 concentration in plasma
Protocol: Drug administration and specimen collection were performed in a randomized, double-blinded, placebo-controlled, ascending single dose study of the safety, tolerability, pharmacokinetics, and pharmacodynamics of DCDQ administered orally to healthy subjects and subjects with schizophrenia and schizoaffective disorder. The specimens were stored at approximately −70° C. until analysis for metabolite profiles and for ratios of carbamoyl glucuronide (M6) to DCDQ.
Plasma samples from fasted subjects 25, 28 and 30 in the 50 mg single dose group, fasted subjects 50, 51, 54 in the 200 mg single dose group, fasted subjects 74, 76, 79 in the 300 mg single dose group, fed subjects 83, 84, 86 in the 300 mg single dose group and fasted subjects 92, 94, 96 in the 500 mg single dose group were analyzed for DCDQ carbamoyl glucuronide (M6) concentrations. The internal standard d8-DCDQ (25 μL of 200 ng/mL methanol solution) was added to 100 μL of the plasma samples, followed by the addition of 300 μL of acetonitrile. The samples were mixed and centrifuged at 14000 rpm in an Eppendorf 5415C centrifuge (Brinkman Instruments Inc., Westbury, N.Y.) for 10 minutes. The supernatant of each sample was transferred to a clean tube and evaporated to dryness under a stream of nitrogen in a TurboVap LV evaporator (Caliper Life Sciences, Hopkinton, Mass.). The residue was reconstituted with 50 μL of methanol followed by the addition of 150 μL of water. The sample was mixed and centrifuged as described above. The supernatant was analyzed by LC/MS/MS analysis. Samples for standard curves were prepared with control plasma spiked with synthetic M6. The concentrations of M6 used for the standard curve ranged from 0 to 2500 ng/mL plasma.
LC/MS System 3 was used for semi-quantitative analysis of metabolite M6 (DCDQ carbamoyl glucuronide) in plasma and urine samples. The HPLC equipment for this LC/MS System consisted of a Thermo Surveyor HPLC (Thermo Electron Corp., San Jose, Calif.), including a Surveyor MS pump and autosampler. Separations were accomplished on a 5 micron Phenomenex Luna C18(2) column, 150×2 mm (Phenomenex, Torrance, Calif.). The autosampler and column temperatures were set at 5° C. and 40° C., respectively. The HPLC mobile phase consisted of 10 mM ammonium acetate (A) and methanol (B), and was delivered at 0.2 mL/min. The linear mobile phase gradient (HPLC Gradient 2) is shown below. During LC/MS sample analysis, up to 3 min of the initial flow was diverted away from the mass spectrometer prior to evaluation of metabolites.
The mass spectrometer used for semi-quantitative anslysis with LC/MS System 3 was a Finnigan TSQ Quantum triple quadrupole mass spectrometer (Thermo Electron Corp.). The mass spectrometer was equipped with an electrospray interface and operated in the positive ionization mode. Settings for this mass spectrometer are listed below.
LC/MS/MS analysis in the selected reaction monitoring (SRM) mode (LC/SRM) was conducted for DCDQ and M6 using the following settings.
The computer program Microsoft Excel® 97 was used to calculate means and standard deviations and to perform the student t-test. Xcalibur (version 1.3) and MassLynx software (version 4.0) were used for collection and analysis of LC/MS data. Peak area ratios of M6 to the internal standard were used for quantitation of M6 in plasma samples.

[1] = 50 mg (fasted), 6 hr, individual subjects
[2] = 50 mg (fasted), 12 hr, individual subjects
[3] = 50 mg (fasted), 24 hr, individual subjects
[4] = 200 mg (fasted), 6 hr, individual subjects
[5] = 200 mg (fasted), 12 hr, individual subjects
[6] = 200 mg (fasted), 24 hr, individual subjects
[7] = 300 mg (fasted), 6 hr, individual subjects
[8] = 300 mg (fasted), 12 hr, individual subjects
[9] = 300 mg (fasted), 24 hr, individual subjects
[10] = 300 mg (fed), 6 hr, individual subjects
[11] = 300 mg (fed), 12 hr, individual subjects

O=C(O)[C@H]1O[C@@H](OC(=O)N2CCN3C[C@@H]4CCC[C@@H]4c4cccc(c43)C2)[C@H](O)[C@@H](O)[C@@H]1O [Metabolite M6, carbamoyl glucuronide of DCDQ]
concentration at 6 h (300 mg, 300 mg (fed), 6 hr, Mean ± S.D.): 0.579 ± 0.354 µg/mL | concentration at 12 h (300 mg, 300 mg (fed), 12 hr, Mean ± S.D.): 0.286 ± 0.251 µg/mL | concentration at 24 h (300 mg, 300 mg (fed), 24 hr, Mean ± S.D.): 0.059 ± 0.0759 µg/mL | concentration at 6 h (500 mg, 500 mg (fasted), 6 hr, Mean ± S.D.): 1.02 ± 0.444 µg/mL | concentration at 12 h (500 mg, 500 mg (fasted), 12 hr, Mean ± S.D.): 0.178 ± 0.0301 µg/mL | concentration at 12 h (500 mg, 500 mg (fasted), 12 hr, individual subjects): 0.146 µg/mL | concentration at 24 h (500 mg, 500 mg (fasted), 24 hr, Mean ± S.D.): 0.0496 ± 0.0326 µg/mL | M6 to DCDQ Ratios (50 mg (fasted), 6 hr, Mean ± S.D.): 74.3 ± 59.6 | M6 concentration in plasma [1]: 132 ng/mL and 83.1 ng/mL | M6 to DCDQ Ratios [1]: 141 and 26.4 | M6 to DCDQ Ratios (50 mg (fasted), 12 hr, Mean ± S.D.): 14.8 ± 7.87 | M6 concentration in plasma [2]: 15.1 ng/mL and 6.60 ng/mL and 15.4 ng/mL | M6 to DCDQ Ratios [2]: 21.6 and 16.5 and 6.16 | M6 to DCDQ Ratios (50 mg (fasted), 24 hr, Mean (standard deviation not calculated)): 10.8 | M6 concentration in plasma [3]: 3.6 ng/mL | M6 to DCDQ Ratios [3]: 15.5 and 6.00 | M6 to DCDQ Ratios (200 mg (fasted), 6 hr, Mean ± S.D.): 45.2 ± 34.0 | M6 concentration in plasma [4]: 225 ng/mL and 615 ng/mL and 216 ng/mL | M6 to DCDQ Ratios [4]: 83.3 and 34.2 and 18.0 | M6 to DCDQ Ratios (200 mg (fasted), 12 hr, Mean ± S.D.): 14.3 ± 14.8 | M6 concentration in plasma [5]: 37.5 ng/mL and 62.9 ng/mL and 30.3 ng/mL | M6 to DCDQ Ratios [5]: 31.3 and 6.84 and 4.73 | M6 to DCDQ Ratios (200 mg (fasted), 24 hr, Mean ± S.D.): 8.42 ± 6.68 | M6 concentration in plasma [6]: 8.8 ng/mL and 9.4 ng/mL | M6 to DCDQ Ratios [6]: 16.0 and 3.38 and 5.88 | M6 to DCDQ Ratios (300 mg (fasted), 6 hr, Mean ± S.D.): 46.1 ± 21.6 | M6 concentration in plasma [7]: 123 ng/mL and 249 ng/mL and 339 ng/mL | M6 to DCDQ Ratios [7]: 58.9 and 58.3 and 21.2 | M6 to DCDQ Ratios (300 mg (fasted), 12 hr, Mean ± S.D.): 23.5 ± 5.10 | M6 concentration in plasma [8]: 43.0 ng/mL and 78.0 ng/mL and 145 ng/mL | M6 to DCDQ Ratios [8]: 28.7 and 23.4 and 18.5 | M6 to DCDQ Ratios (300 mg (fasted), 24 hr, Mean ± S.D.): 24.1 ± 22.7 | M6 concentration in plasma [9]: 48.5 ng/mL and 12.0 ng/mL and 26.3 ng/mL | M6 to DCDQ Ratios [9]: 49.9 and 6.98 and 15.5 | M6 to DCDQ Ratios (300 mg (fed), 6 hr, Mean ± S.D.): 76.6 ± 54.9 | M6 concentration in plasma [10]: 860 ng/mL and 696 ng/mL and 182 ng/mL | M6 to DCDQ Ratios [10]: 45.3 and 44.6 and 140 | M6 concentration in plasma [11]: 279 ng/mL and 38.1 ng/mL and 540 ng/mL | M6 to DCDQ Ratios [11]: 25.6 and 4.73 | M6 concentration in plasma (300 mg (fed), 24 hr, individual subjects): 24.6 ng/mL and 6.40 ng/mL and 146 ng/mL | M6 concentration in plasma (500 mg (fasted), 6 hr, individual subjects): 1324 ng/mL and 508 ng/mL and 1221 ng/mL | M6 concentration in plasma (500 mg (fasted), 12 hr, individual subjects): 181 ng/mL and 206 ng/mL | M6 concentration in plasma (500 mg (fasted), 24 hr, individual subjects): 58.3 ng/mL and 13.5 ng/mL and 77.0 ng/mL
